Measurements from ChEMBL document CHEMBL4351009, “hERG optimizations of IMB1603, discovery of alternative benzothiazinones as new antitubercular agents” (Eur J Med Chem, 2019).
≈ marks a conversion by molar mass, not a printed value.

What was measured:
[1] = tested on: Mycobacterium tuberculosis; test: Antimycobacterial activity against multidrug resistance Mycobacterium tuberculosis 16995 clinical isolate assessed as reduction in bacterial cell viability incubated for 7 days by microplate alamar blue assay; format: functional; conditions: Mycobacterium tuberculosis, 16995, 168 h
[2] = tested on: Mycobacterium tuberculosis; test: Antimycobacterial activity against multidrug resistance Mycobacterium tuberculosis 16883 clinical isolate assessed as reduction in bacterial cell viability incubated for 7 days by microplate alamar blue assay; format: functional; conditions: Mycobacterium tuberculosis, 16883, 168 h

| SMILES | MIC [1] | MIC [2] |
| --- | --- | --- |
| O=c1nc(N2CC3CCC2CN3Cc2ccc(F)cc2)sc2c([N+](=O)[O-])cc(C(F)(F)F)cc12 (stereo not given) | < 0.035 µM | 0.062 µM (≈ 0.0307 µg/mL) |
| O=c1nc(N2CCC3(CCN(c4ccc(F)cc4)C3)CC2)sc2c([N+](=O)[O-])cc(C(F)(F)F)cc12 | < 0.035 µM | < 0.035 µM |
| NNC(=O)c1ccncc1 [ISONIAZID] | > 40 µM | > 40 µM |
| O=c1nc(N2CCN(CC3CCCCC3)CC2)sc2c([N+](=O)[O-])cc(C(F)(F)F)cc12 [MACOZINONE] | < 0.035 µM | < 0.035 µM |
| CO[C@H]1/C=C/O[C@@]2(C)Oc3c(C)c(O)c4c(O)c(c(/C=N/N5CCN(C)CC5)c(O)c4c3C2=O)NC(=O)/C(C)=C\C=C\[C@H](C)[C@H](O)[C@@H](C)[C@@H](O)[C@@H](C)[C@H](OC(C)=O)[C@@H]1C [RIFAMPIN] | > 40 µM | > 40 µM |
